Assay [1] has as its target T1, 2xSUMO2ΔN11 (di-SUMO2) (Homo sapiens, UniProt P61956).
T1 construct: Each monomer in these chains is separated by RS replacing the natural GG motif; a C-terminal GG motif and a stop codon; GST (N, cleaved yes); made in house; host or cells: E. coli Rosetta 2(DE3)pLysS
Description: ITC binding to linear di-SUMO2 (2xSUMO2ΔN11). The following applies: linear di-SUMO2. An excerpt:
(§1) For expression in Escherichia coli, linear poly-SUMO chains were generated as described previously with slight modifications. After the combined PCR/ligation reaction, the 4×SUMO2-ΔN11 or 4×SUMO1-ΔN15 DNA polymers were separated from smaller polymers by agarose gel electrophoresis and individually extracted (Macherey–Nagel). These were then subjected to a second PCR with primers to create BamHI and XhoI restriction sites, a C-terminal GG motif and a stop codon. The resulting fragments coding for di-, tri- and tetra-SUMO2-ΔN11 or SUMO1-ΔN15 chains were amplified and cloned into pGEX-4T2. […] Each monomer in these chains is separated by RS replacing the natural GG motif. A similar strategy was used to design C-terminally GFP–HA2-tagged linear poly-SUMOs in the copper-inducible Ycplac22 vector for expression in S. cerevisiae. […]
(§2) The mono-SUMOs and linear poly-SUMO1 and poly-SUMO2 proteins as well as all RNF4 constructs were expressed as GST-fusion proteins from E. coli Rosetta™ 2(DE3)pLysS cells (Novagen) cultivated in LB medium with 100 μg/ml ampicillin and 30 μg/ml chloramphenicol after induction with 0.1 mM IPTG at 20°C for 12 h. […]
(§3) Binding of peptides and proteins to SUMOs was investigated by ITC using either a VP-ITC or an ITC200 (GE Healthcare). […] Protein concentrations were determined by measuring the absorption at 280 nm. […]

The target in assay [2] is T2, 1xSUMO2ΔN11 (mono-SUMO2) (Homo sapiens, UniProt P61956).
T2 construct: a C-terminal GG motif and a stop codon; GST (N, cleaved yes); made in house; host or cells: E. coli Rosetta 2(DE3)pLysS
T2 sequence (P61956 12-93 limits assumed, stated change not applied): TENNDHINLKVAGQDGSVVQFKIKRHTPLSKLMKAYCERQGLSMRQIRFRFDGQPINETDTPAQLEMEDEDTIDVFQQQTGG
Description: ITC binding to mono-SUMO2 (1xSUMO2ΔN11).
Description: as §1, §2, §3

Each structure is given as a SMILES string. Peptide text beside a SMILES is read from it.

T1 sequence (P61956 with tags, fused parts or gaps): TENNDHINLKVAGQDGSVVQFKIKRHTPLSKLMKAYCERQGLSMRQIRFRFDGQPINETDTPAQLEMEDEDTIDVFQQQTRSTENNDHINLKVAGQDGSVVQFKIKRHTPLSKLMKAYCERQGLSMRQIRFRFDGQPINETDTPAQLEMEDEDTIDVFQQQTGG

`CC[C@H](C)[C@H](NC(=O)[C@@H](NC(=O)[C@H](CCC(=O)O)NC(=O)[C@H](CO)NC(=O)[C@H](CO)NC(=O)[C@H](CO)NC(=O)[C@H](CO)NC(=O)[C@H](CC(=O)O)NC(=O)[C@@H](NC(=O)[C@@H](NC(=O)[C@H](CC(C)C)NC(=O)[C@H](CC(=O)O)NC(=O)[C@@H](NC(=O)[C@@H](NC(=O)[C@H](CCC(=O)O)NC(=O)[C@@H](NC(=O)[C@H](CCCCN)NC(=O)[C@@H](N)CCCCN)C(C)C)C(C)C)[C@@H](C)CC)[C@@H](C)O)[C@@H](C)CC)C(C)C)C(=O)N[C@@H](CC(=O)O)C(=O)N[C@@H](CC(C)C)C(=O)N[C@H](C(=O)N[C@H](C(=O)N[C@@H](CC(=O)O)C(=O)N[C@@H](CO)C(=O)N[C@@H](CO)C(=O)O)[C@@H](C)CC)[C@@H](C)O` [2xPIAS1pep, reference compound] (H-KKVEVIDLTIDSSSSEVIDLTIDSS-OH; N-terminus and C-terminus assumed): the “affinity for di-SUMO2” value in assay [1] is given as “exceeded the affinities of the RNF4-SIM2/3 peptide”. Turning to `CC[C@H](C)[C@H](NC(=O)[C@@H](NC(=O)[C@H](CCC(=O)O)NC(=O)[C@@H](NC(=O)[C@H](CCCCN)NC(=O)[C@@H](N)CCCCN)C(C)C)C(C)C)C(=O)N[C@@H](CC(=O)O)C(=O)N[C@@H](CC(C)C)C(=O)N[C@H](C(=O)N[C@H](C(=O)N[C@@H](CC(=O)O)C(=O)N[C@@H](CO)C(=O)N[C@@H](CO)C(=O)N[C@@H](CO)C(=O)N[C@@H](CC(=O)O)C(=O)N[C@@H](CCC(=O)O)C(=O)O)[C@@H](C)CC)[C@@H](C)O` [PIAS1pep] (H-KKVEVIDLTIDSSSDE-OH; N-terminus and C-terminus assumed), in assay [2], the “affinity for mono-SUMO2” value is reported as “much stronger than the binding of any RNF4-derived tandem SIM peptide”. With `CC[C@H](C)[C@H](NC(=O)[C@H](CCC(=O)O)NC(=O)[C@H](CC(=O)O)NC(=O)CN)C(=O)N[C@H](C(=O)N[C@@H](CC(=O)O)C(=O)N[C@@H](CC(C)C)C(=O)N[C@H](C(=O)N[C@@H](CS)C(=O)N[C@@H](CCC(=O)O)C(=O)N[C@@H](CO)C(=O)N[C@@H](CC(C)C)C(=O)N[C@@H](CCC(=O)O)C(=O)N1CCC[C@H]1C(=O)N[C@H](C(=O)N[C@H](C(=O)N[C@H](C(=O)N[C@@H](CC(=O)O)C(=O)N[C@@H](CC(C)C)C(=O)N[C@H](C(=O)N[C@@H](Cc1c[nH]cn1)C(=O)N[C@@H](CC(N)=O)C(=O)N[C@@H](CC(=O)O)C(=O)N[C@@H](CO)C(=O)O)[C@@H](C)O)C(C)C)C(C)C)C(C)C)[C@@H](C)O)C(C)C` [RNF4-SIM2/3pep] (H-GDEIVDLTCESLEPVVVDLTHNDS-OH; N-terminus and C-terminus assumed), the “affinity for di-SUMO2” value in assay [1] was “very similar to the one of the whole RNF4-SIM domain for di-SUMO2”.
